Experimental data published in patent publication US11059818B2, “Triazolopyridine inhibitors of myeloperoxidase” (BRISTOL-MYERS SQUIBB COMPANY, priority 2016, dated 2021).

Experiments:
myeloperoxidase [1] = target: T1, myeloperoxidase (Homo sapiens (Human), UniProt P05164); experiment: MPO Chlorination Assay (APF Assay); assay type: biochemical; conditions: potency range class
Description: (§1) [formula] where A=minimal Y value (activity level of inhibited sample), B=maximal Y value (activity level of uninhibited sample), C=Log IC50, D=Hill Slope, x=concentration of inhibitor. MPO Chlorination Assay (APF Assay)
MPO chlorination activity was measured in 100 mM KPi (pH 7.4) by utilizing the non-fluorescent reagent Aminophenyl fluorescein (APF, Invitrogen Cat. #A36003). APF is cleaved by (—OCl) to yield the fluorescent compound fluorescein. Reactions were carried out in 50 μL total volume by adding a 25 μL mixture of 200 pM myeloperoxidase and 120 mM NaCl to 100 nL inhibitor in 100% DMSO in a 384 well, non-binding surface clear bottom plate (Corning #3655). Enzyme, inhibitor, and chloride were preincubated for ten minutes at rt.
After the ten minute preincubation, 25 μL of an APF mixture containing […], 120 mM NaCl and 10 μM H2O2 was added to the plate using the internal dispensing system of a Hammatsu FDSS 6000. Kinetic determinations were carried out immediately on the FDSS 6000 (3 minute kinetic read, 1 read every second, ex: 485 nm, em: 535 nm). IC50 values for inhibitors were calculated by taking the slope of the linear portion of the kinetic measurement (20 seconds to ˜80-120 secs). […]
[formula] where A=minimal Y value (activity level of inhibited sample), B=maximal Y value (activity level of uninhibited sample), C=Log IC50, D=Hill Slope, x=concentration of inhibitor.

myeloperoxidase [2] = target: T1, myeloperoxidase; experiment: MPO Peroxidation Assay (Amplex Red Assay); assay type: biochemical; conditions: potency range class
Description: MPO Peroxidation Assay (Amplex Red Assay)
MPO peroxidation activity was measured in 100 mM KPi (pH 7.4) by utilizing the non-fluorescent reagent Amplex Red (Invitrogen Cat. #A12222) which can be oxidized to the highly fluorescent resorufin. Amplex Red is oxidized by the peroxidase action of MPO to resorufin. Reactions were carried out in 50 μL total volume by adding a 25 μL mixture of 200 pM myeloperoxidase and 40 nM H2O2(Sigma #349887) to 100 nL inhibitor in 100% DMSO in a 384 well Perkin Elmer Optiplate. Enzyme and compound were preincubated for ten minutes at rt.
After the ten minute preincubation, 25 μL of an Amplex Red mixture containing 200 μM Amplex Red and 10 mM H2O2 was added to the plate. Kinetic determinations were carried out immediately on a Perkin Elmer Envision (15 minute kinetic read, Ex: 535 nm, Em: 590 nm).
IC50 values were calculated by determining the slope of the linear portion of the kinetic trace (180-540 secs), and using that calculated slope to determine % inhibition occurring at each concentration of inhibitor using the following equation:
as §1

T1 sequence (P05164 49-745): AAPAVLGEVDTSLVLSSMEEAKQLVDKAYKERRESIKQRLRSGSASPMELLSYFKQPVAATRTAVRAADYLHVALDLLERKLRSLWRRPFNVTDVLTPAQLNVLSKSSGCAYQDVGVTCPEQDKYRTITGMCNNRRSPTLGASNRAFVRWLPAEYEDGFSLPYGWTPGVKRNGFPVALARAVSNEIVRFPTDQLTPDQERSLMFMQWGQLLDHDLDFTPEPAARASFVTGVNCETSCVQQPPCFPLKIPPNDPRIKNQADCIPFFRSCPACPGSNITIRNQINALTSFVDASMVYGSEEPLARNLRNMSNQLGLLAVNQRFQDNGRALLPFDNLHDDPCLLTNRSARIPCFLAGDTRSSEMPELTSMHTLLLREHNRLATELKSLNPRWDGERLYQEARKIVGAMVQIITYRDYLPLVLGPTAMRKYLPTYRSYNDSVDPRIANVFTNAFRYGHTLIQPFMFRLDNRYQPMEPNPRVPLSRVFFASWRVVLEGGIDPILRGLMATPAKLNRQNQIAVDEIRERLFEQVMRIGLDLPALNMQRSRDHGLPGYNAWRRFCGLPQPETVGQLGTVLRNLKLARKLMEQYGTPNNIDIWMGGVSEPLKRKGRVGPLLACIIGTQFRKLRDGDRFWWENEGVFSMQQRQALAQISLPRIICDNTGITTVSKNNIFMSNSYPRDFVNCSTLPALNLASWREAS

| IC50 (myeloperoxidase [1]) | IC50 (myeloperoxidase [2]) | SMILES |
| --- | --- | --- |
| 1 to 100 nM | 101 to 999 nM | Nc1cc(C(CCN[C@H]2CC[C@H](c3ccccc3)CC2)c2cnn(Cc3cccc4ccccc34)c2)c2nn[nH]c2n1 (stereo partly drawn) [Example 24, 7-{1-[1-(Naphthalen-1-ylmethyl)-1H-pyrazol-4-yl]-3-{[trans-4-phenylcyclohexyl]amino}propyl}-3H-[1,2,3]triazolo[4,5-b]pyridin-5-amine] |
| 1 to 100 nM | 101 to 999 nM | Nc1cc(C(CCN[C@H]2CC[C@H](c3ccccc3)CC2)c2cnn(Cc3cccc(OC(F)F)c3)c2)c2nn[nH]c2n1 (stereo partly drawn) [Example 25, 7-[1-(1-{[3-(Difluoromethoxy)phenyl]methyl}-1H-pyrazol-4-yl)-3-{[trans-4-phenylcyclohexyl]amino}propyl]-3H-[1,2,3]triazolo[4,5-b]pyridin-5-amine] |
| 1 to 100 nM | 101 to 999 nM | Nc1cc(C(CCN[C@H]2CC[C@H](c3ccccc3)CC2)c2cnn(Cc3cc(F)cc(F)c3)c2)c2nn[nH]c2n1 (stereo partly drawn) [Example 26, 7-(1-{1-[(3,5-Difluorophenyl)methyl]-1H-pyrazol-4-yl}-3-{[trans-4-phenylcyclohexyl]amino}propyl)-3H-[1,2,3]triazolo[4,5-b]pyridin-5-amine] |
| 1 to 100 nM | 101 to 999 nM | Nc1cc(C(CCN[C@H]2CC[C@H](c3ccccc3)CC2)c2cnn(C3CCC3(F)F)c2)c2nn[nH]c2n1 (stereo partly drawn) [Example 28, 7-{1-[1-(2,2-Difluorocyclobutyl)-1H-pyrazol-4-yl]-3-{[trans-4-phenylcyclohexyl]amino}propyl}-3H-[1,2,3]triazolo[4,5-b]pyridin-5-amine] |
| 1 to 100 nM | 101 to 999 nM | Nc1cc(C(CCN[C@H]2CC[C@H](c3ccccc3)CC2)c2cnn(C3CC(F)C3(F)F)c2)c2nn[nH]c2n1 (stereo partly drawn) [Example 29, 7-(3-{[trans-4-phenylcyclohexyl]amino}-1-[1-(2,2,3-trifluorocyclobutyl)-1H-pyrazol-4-yl]propyl)-3H-[1,2,3]triazolo[4,5-b]pyridin-5-amine] |
| 1 to 100 nM | 101 to 999 nM | Nc1cc(C(CCN[C@H]2CC[C@H](c3ccccc3)CC2)c2cnn(CCC(F)(F)F)c2)c2nn[nH]c2n1 (stereo partly drawn) [Example 30, 7-(3-{[trans-4-Phenylcyclohexyl]amino}-1-[1-(3,3,3-trifluoropropyl)-1H-pyrazol-4-yl]propyl)-3H-[1,2,3]triazolo[4,5-b]pyridin-5-amine] |
| 1 to 100 nM | 101 to 999 nM | Nc1cc(C(CCN[C@H]2CC[C@H](c3ccccc3)CC2)c2cnn(Cc3cccc(C(F)(F)F)c3)c2)c2nn[nH]c2n1 (stereo partly drawn) [Example 31, 7-(3-{[trans-4-Phenylcyclohexyl]amino}-1-(1-{[3-(trifluoromethyl)phenyl]methyl}-1H-pyrazol-4-yl)propyl)-3H-[1,2,3]triazolo[4,5-b]pyridin-5-amine] |
| 101 to 999 nM | 1000 to 10000 nM | Nc1cc(C(CCN[C@H]2CC[C@H](c3ccccc3)CC2)c2cnn(C3CC3)c2)c2nn[nH]c2n1 (stereo partly drawn) [Example 32, 7-[1-(1-Cyclopropyl-1H-pyrazol-4-yl)-3-{[trans-4-phenylcyclohexyl]amino}propyl]-3H-[1,2,3]triazolo[4,5-b]pyridin-5-amine] |
| 101 to 999 nM | 1000 to 10000 nM | Nc1cc([C@H](CCN[C@H]2CC[C@H](c3ccccc3)CC2)c2cnn(Cc3cccc(OC(F)F)c3)c2)c2nn[nH]c2n1 [Example 33A, 7(S)-[1-(1-{[3-(Difluoromethoxy)phenyl]methyl}-1H-pyrazol-4-yl)-3-{[trans-4-phenylcyclohexyl]amino}propyl]-3H-[1,2,3]triazolo[4,5-b]pyridin-5-amine] |
| 1 to 100 nM | 1 to 100 nM | Nc1cc([C@@H](CCN[C@H]2CC[C@H](c3ccccc3)CC2)c2cnn(Cc3cccc(OC(F)F)c3)c2)c2nn[nH]c2n1 [Example 33B, 7(R)-[1-(1-{[3-(Difluoromethoxy)phenyl]methyl}-1H-pyrazol-4-yl)-3-{[trans-4-phenylcyclohexyl]amino}propyl]-3H-[1,2,3]triazolo[4,5-b]pyridin-5-amine] |
| 1 to 100 nM | 101 to 999 nM | Nc1cc(C(CCN[C@H]2CC[C@H](c3ccccc3)CC2)c2cccnc2)c2nn[nH]c2n1 (stereo partly drawn) [Example 34, 7-[1-(Pyridin-3-yl)-3-{[trans-4-phenylcyclohexyl]amino}propyl]-3H-[1,2,3]triazolo[4,5-b]pyridin-5-amine] |
| 1 to 100 nM | 101 to 999 nM | Nc1cc(C(CCN[C@H]2CC[C@H](c3ccccc3)CC2)c2cc[nH]c(=O)c2)c2nn[nH]c2n1 (stereo partly drawn) [Example 35, 4-(1-{5-Amino-3H-[1,2,3]triazolo[4,5-b]pyridin-7-yl}-3-{[trans-4-phenylcyclohexyl]amino}propyl)-1,2-dihydropyridin-2-one] |
| 101 to 999 nM | 1000 to 10000 nM | Nc1cc(C(CCN[C@H]2CC[C@H](c3ccccc3)CC2)c2cc[nH]n2)c2nn[nH]c2n1 (stereo partly drawn) [Example 36, 7-[1-(1H-Pyrazol-3-yl)-3-{[trans-4-phenylcyclohexyl]amino}propyl]-3H-[1,2,3]triazolo[4,5-b]pyridin-5-amine] |
| 1 to 100 nM | 1 to 100 nM | Nc1cc(C(CCN[C@@H]2C[C@@H](Cc3ccccc3)[C@H](O)C2)c2cnn(Cc3cccc(O)c3)c2)c2nn[nH]c2n1 (stereo partly drawn) [Example 42, 3-{[4-(1-{5-Amino-3H-[1,2,3]triazolo[4,5-b]pyridin-7-yl}-3-{[(1R,3R,4R)-3-benzyl-4-hydroxycyclopentyl]amino}propyl)-1H-pyrazol-1-yl]methyl}phenol] |
| 1 to 100 nM | 1000 to 10000 nM | Nc1cc(C(CCN2C[C@H](Cc3ccccc3)[C@@H](O)C2)c2cnn(Cc3cccc(O)c3)c2)c2nn[nH]c2n1 (stereo partly drawn) [Example 43] |
| 101 to 999 nM | 1000 to 10000 nM | Nc1cc(C(CCN[C@H]2CC[C@H](c3ccccc3)CC2)c2cncc(F)c2)c2nn[nH]c2n1 (stereo partly drawn) [Example 44] |
| 101 to 999 nM | 101 to 999 nM | Nc1cc(C(CCN[C@H]2CC[C@H](c3ccccc3)CC2)c2ccc(F)nc2)c2nn[nH]c2n1 (stereo partly drawn) [Example 45] |
| 101 to 999 nM | 101 to 999 nM | Nc1cc(C(CCNCc2ccccc2)c2cnn(Cc3cccc(O)c3)c2)c2nn[nH]c2n1 (stereo not drawn) [Example 46] |
| 101 to 999 nM | 101 to 999 nM | CCC(c1cnn(Cc2cccc(O)c2)c1)c1cc(N)nc2[nH]nnc12 (stereo not drawn) [Example 47] |
| 101 to 999 nM | 1000 to 10000 nM | Nc1cc(C(CCNCc2cccc(CO)c2)c2cnn(Cc3cccc(O)c3)c2)c2nn[nH]c2n1 (stereo not drawn) [Example 48] |
| 101 to 999 nM | 1000 to 10000 nM | Nc1cc(C(CCNCc2cccc(O)c2)c2cnn(Cc3cccc(O)c3)c2)c2nn[nH]c2n1 (stereo not drawn) [Example 49] |
| 1 to 100 nM | 101 to 999 nM | Nc1cc(C(CCNC23CCC(c4ccccc4)(CC2)CC3)c2cnn(CCc3cccc(O)c3)c2)c2nn[nH]c2n1 (stereo not drawn) [Example 50] |
| 1 to 100 nM | 1 to 100 nM | Nc1cc(C(CCNC23CCC(c4ccccc4)(CC2)[C@H](O)C3)c2cnn(Cc3cccc(O)c3)c2)c2nn[nH]c2n1 (stereo partly drawn) [Example 51] |
| 1 to 100 nM | 1 to 100 nM | Nc1cc(C(CCNC23CCC(c4ccccc4)(CC2)[C@@H](O)C3)c2cnn(Cc3cccc(O)c3)c2)c2nn[nH]c2n1 (stereo partly drawn) [Example 52] |
| 101 to 999 nM | 1000 to 10000 nM | Nc1cc(C(CCN[C@@H]2CC[C@@H](Cc3ccccc3)C2)c2cnn(CCc3cccc(O)c3)c2)c2nn[nH]c2n1 (stereo partly drawn) [Example 53] |
| 101 to 999 nM | 1000 to 10000 nM | Nc1cc(C(CCN[C@H]2C[C@H](Cc3ccccc3)[C@@H](O)C2)c2cnn(CCc3cccc(O)c3)c2)c2nn[nH]c2n1 (stereo partly drawn) [Example 54] |
| 101 to 999 nM | 101 to 999 nM | Nc1cc(C(CCO)c2cnn(Cc3cccc(OC4CCC(N)C4)c3)c2)c2nn[nH]c2n1 (stereo not drawn) [Example 55] |
